Laboratory results: patent US20120245121A1, “METHODS FOR IMPROVING BONE HEALTH IN INFANTS USING LONG CHAIN POLYUNSATURATED FATTY ACIDS” (ABBOTT LABORATORIES, priority 2011, published 2012)

What was measured:
Assay type in all cases: in vivo, Sprague-Dawley rats
rat offspring [1] = assay: pDEXA bone mineral density (BMD) and bone mineral content (BMC) of rat offspring after maternal diet supplementation; conditions: for lumbar vertebra BMC with respect to Control group / lumbar vertebra BMD with respect to Control group: adolescence
Protocol: Fifty 10-week-old pregnant Sprague-Dawley rats at the eleventh day of gestation (Charles Rivers Laboratories, Orleans Cedex, France) are housed under standardized environmental conditions (22° C., relative humidity of 50%, artificial lighting on for 12 hours/day) and are given free access to deionized water during the test period. The rats are randomly divided into five groups of feeding (n=10/group): (1) Control Group (“Control”), who receives a standard purified rodent diet (SPRD); […] (3) Prebiotic group (“Prebiotic”), who receives the SPRD containing 7.5% of the total carbohydrate as inulin-type fructans (Synergy-1®, Orafti, Belgium); […] During their suckling period, the pups receive only the dam's milk. […] Sacrifices of rat pups are carried out at birth, weaning and at the end of the adolescence period. The whole bone mineral density (BMD) and bone mineral content (BMC) of the skeleton are measured at birth and at weaning by using a pDEXA densitometer (Norland Corp., Fort Atkinson, Wis., USA). In adolescent offspring, the determination of BMC and BMD are analyzed in isolated bones (femur, tibia and vertebrae). Determination of the trabecular architecture parameters (trabecular thickness, separation and number), bone length and bone volume fraction (BV/TV) is analyzed by Micro-computed tomography (micro-CT). Micro-CT analysis is carried out by the Bone & Joint Research Group (University of Southampton, UK) and cortical parameters are performed by SCANCO Medical AG (Brüttisellen, Switzerland). DEXA scan is a technique used in the clinical practice for the analysis of bone health. Two main bone properties can be measured by this technique: Bone Mineral Content (BMC) and areal Bone Mineral Density (BMD). BMC determines the mass of mineral present in the whole body or in the selected skeletal region. BMC changes reflect the result of the metabolic “mass” balance between bone formation and bone destruction. BMC represented relative to the projected bone area refers to BMD. […] The manufacturer's software for research in small animals calculates BMC and BMD for the isolated bone. Femur is measured from the femoral neck to the knee joint. Tibia is measured from the knee joint to the joint between tibia and calcaneus, also including fibula. […] Results are expressed as mean±SEM, and the probability level at which the differences are considered significant is set at p<0.05. One-way ANOVA is used to evaluate differences attributable to the diet in the different markers, previously testing the homogeneity of variances by Levene's. A posteriori post hoc tests are carried out by the Dunnet test.

rat offspring [2] = assay: Micro-CT trabecular architecture and bone length of rat offspring after maternal diet supplementation
Protocol: Fifty 10-week-old pregnant Sprague-Dawley rats at the eleventh day of gestation (Charles Rivers Laboratories, Orleans Cedex, France) are housed under standardized environmental conditions (22° C., relative humidity of 50%, artificial lighting on for 12 hours/day) and are given free access to deionized water during the test period. The rats are randomly divided into five groups of feeding (n=10/group): (1) Control Group (“Control”), who receives a standard purified rodent diet (SPRD); […] (3) Prebiotic group (“Prebiotic”), who receives the SPRD containing 7.5% of the total carbohydrate as inulin-type fructans (Synergy-1®, Orafti, Belgium); […] During their suckling period, the pups receive only the dam's milk. […] Sacrifices of rat pups are carried out at birth, weaning and at the end of the adolescence period. The whole bone mineral density (BMD) and bone mineral content (BMC) of the skeleton are measured at birth and at weaning by using a pDEXA densitometer (Norland Corp., Fort Atkinson, Wis., USA). In adolescent offspring, the determination of BMC and BMD are analyzed in isolated bones (femur, tibia and vertebrae). Determination of the trabecular architecture parameters (trabecular thickness, separation and number), bone length and bone volume fraction (BV/TV) is analyzed by Micro-computed tomography (micro-CT). Micro-CT analysis is carried out by the Bone & Joint Research Group (University of Southampton, UK) and cortical parameters are performed by SCANCO Medical AG (Brüttisellen, Switzerland). Micro-computed tomography (micro-CT) is a technique for the nondestructive assessment and analysis of the three-dimensional trabecular and cortical bone structural properties. Scanning with micro-CT can be achieved at resolutions as low as 5 μm, allowing for the determination of porosities and subtle modeling and remodeling events of the bone tissue. Furthermore, true three-dimensional image reconstructions permit the assessment of bone microarchitecture as a three dimensional structure, providing critical information to images collected through histomorphometry. In the present Example, femoral, tibia and vertebra cancellous bones are assessed using Metris (XTek) Benchtop 160Xi CT scanner (University of Southampton) and vertebra cortical bone is assessed using MicroCT-40 computed tomography system (Scanco Medical, Basserdorf, Switzerland). […] Results are expressed as mean±SEM, and the probability level at which the differences are considered significant is set at p<0.05. One-way ANOVA is used to evaluate differences attributable to the diet in the different markers, previously testing the homogeneity of variances by Levene's. A posteriori post hoc tests are carried out by the Dunnet test.

rat offspring [3] = assay: Micro-CT vertebra cortical architecture of rat offspring after maternal diet supplementation; conditions: adolescence
Protocol: Fifty 10-week-old pregnant Sprague-Dawley rats at the eleventh day of gestation (Charles Rivers Laboratories, Orleans Cedex, France) are housed under standardized environmental conditions (22° C., relative humidity of 50%, artificial lighting on for 12 hours/day) and are given free access to deionized water during the test period. The rats are randomly divided into five groups of feeding (n=10/group): (1) Control Group (“Control”), who receives a standard purified rodent diet (SPRD); […] (3) Prebiotic group (“Prebiotic”), who receives the SPRD containing 7.5% of the total carbohydrate as inulin-type fructans (Synergy-1®, Orafti, Belgium); […] During their suckling period, the pups receive only the dam's milk. […] Sacrifices of rat pups are carried out at birth, weaning and at the end of the adolescence period. The whole bone mineral density (BMD) and bone mineral content (BMC) of the skeleton are measured at birth and at weaning by using a pDEXA densitometer (Norland Corp., Fort Atkinson, Wis., USA). In adolescent offspring, the determination of BMC and BMD are analyzed in isolated bones (femur, tibia and vertebrae). Determination of the trabecular architecture parameters (trabecular thickness, separation and number), bone length and bone volume fraction (BV/TV) is analyzed by Micro-computed tomography (micro-CT). Micro-CT analysis is carried out by the Bone & Joint Research Group (University of Southampton, UK) and cortical parameters are performed by SCANCO Medical AG (Brüttisellen, Switzerland). In the present Example, femoral, tibia and vertebra cancellous bones are assessed using Metris (XTek) Benchtop 160Xi CT scanner (University of Southampton) and vertebra cortical bone is assessed using MicroCT-40 computed tomography system (Scanco Medical, Basserdorf, Switzerland). […] Micro-CT analysis also allows for the determination of various quality properties of the cortical bone. The bone fragility is influenced not only by the architecture but also by the tissue “quality”. The strength of a bone as an organ depends on the material properties of bone as a tissue. Stiffness, or the resistance of the whole bone to deformation by a load, is a key material property and requires a destructive mechanical technique if measurements are done in vivo. The non-destructive analysis of the volumetric bone mineral density of cortical bone (cortical vBMD) by micro CT has an approximately linear relationship with the stiffness of the cortical bone. Cortical thickness (C.Th) is one of the variables that helps to evaluate the modeling-derived changes provoked by growth. The cortical porosity (C.Sp) reflects the intracortical remodeling in the bone. […] Results are expressed as mean±SEM, and the probability level at which the differences are considered significant is set at p<0.05. […]

[4] = at delivery, appendicular bones

Compound | lumbar vertebra BMC with respect to Control group (rat offspring [1]) | lumbar vertebra BMD with respect to Control group (rat offspring [1]) | whole body BMC relative to Control group (rat offspring [1]; at weaning) | vertebra structural parameters (BV/TV, trabecular thickness) (rat offspring [2]; adolescence) | vertebra cortical features (rat offspring [3]) | vertebra BV/TV enhanced in comparison with Control group (rat offspring [2]; adolescence) | vertebra trabecular separation respective to Control group (rat offspring [2]; adolescence) | vertebra trabecular thickness enhanced in comparison with Control group (rat offspring [2]; adolescence) | trabecular number of femur and tibia vs Control group (rat offspring [2]; [4]) | trabecular thickness of femur and tibia vs Control group (rat offspring [2]; [4]) | femur length represented versus body weight (rat offspring [2]; at delivery, no difference to Control group) | trabecular separation of femur and tibia vs Control group (rat offspring [2]; at delivery, statistical differences not achieved) | increase in vertebra trabecular thickness respective to Control group (rat offspring [2]; at weaning) | vertebra BV/TV ratio respective to Control group (rat offspring [2]; at weaning) | vertebra trabecular separation respective to Control group (rat offspring [2]; at weaning) | vertebra cortical porosity (rat offspring [3]) | vertebra cortical vBMD (rat offspring [3]) | vertebrae cortical thickness (rat offspring [3])
Vitamin D | no differences | no differences | lower | No effect | does not show any improvement | – | – | – | – | – | – | – | – | – | – | – | – | –
O=C([O-])[O-].[Ca+2] [Calcium, calcium carbonate] | no differences | no differences | – | – | – | 22% | significant decrease | 17% | greater | lower | 0.572±0.04 | decrease | ~30% | statistically different | statistically different | decrease | increase | without significantly affecting
